Experimental data published in patent US9006210B2, “Compositions and methods for treating corneal inflammation” (Case Western Reserve University, priority 2008, dated 2015).
Entries after “also recorded” stand apart in the source; their conditions may differ. Values belong to the compound of their own block, whether it stands above or below them.

Columns and labels:
TLR4 [1] = target: T1, TLR4 (Homo sapiens, UniProt O00206+Q9Y6Y9); assay: LPS-induced IL-8 production by macrophages (U937); type: cell-based; set-up: endogenous in cells; details: for LPS-induced IL-8 production: U937 macrophages, 10 ng/ml LPS, 3 h
T1 sequence (O00206 24-839): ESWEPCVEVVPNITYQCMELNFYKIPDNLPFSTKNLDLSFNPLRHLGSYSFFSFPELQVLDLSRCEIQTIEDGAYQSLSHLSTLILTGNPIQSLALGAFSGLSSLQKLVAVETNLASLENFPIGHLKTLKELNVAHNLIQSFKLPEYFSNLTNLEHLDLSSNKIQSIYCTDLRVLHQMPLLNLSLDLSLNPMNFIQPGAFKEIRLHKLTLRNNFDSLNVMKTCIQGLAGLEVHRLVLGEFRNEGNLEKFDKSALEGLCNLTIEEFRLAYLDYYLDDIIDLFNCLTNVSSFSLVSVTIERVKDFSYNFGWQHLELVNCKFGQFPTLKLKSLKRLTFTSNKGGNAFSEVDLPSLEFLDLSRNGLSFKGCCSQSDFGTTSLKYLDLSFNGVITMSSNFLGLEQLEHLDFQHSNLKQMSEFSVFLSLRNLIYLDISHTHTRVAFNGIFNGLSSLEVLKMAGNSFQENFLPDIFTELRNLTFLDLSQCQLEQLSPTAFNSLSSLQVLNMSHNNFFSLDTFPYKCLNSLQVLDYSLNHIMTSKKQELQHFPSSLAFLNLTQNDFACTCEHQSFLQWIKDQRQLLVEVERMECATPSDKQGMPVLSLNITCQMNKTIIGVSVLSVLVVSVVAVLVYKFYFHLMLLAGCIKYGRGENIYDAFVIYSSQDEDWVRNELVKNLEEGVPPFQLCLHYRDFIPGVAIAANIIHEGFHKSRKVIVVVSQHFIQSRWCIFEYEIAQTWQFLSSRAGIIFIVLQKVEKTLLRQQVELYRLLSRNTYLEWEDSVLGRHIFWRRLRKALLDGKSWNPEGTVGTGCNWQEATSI
T1 sequence (Q9Y6Y9 19-160): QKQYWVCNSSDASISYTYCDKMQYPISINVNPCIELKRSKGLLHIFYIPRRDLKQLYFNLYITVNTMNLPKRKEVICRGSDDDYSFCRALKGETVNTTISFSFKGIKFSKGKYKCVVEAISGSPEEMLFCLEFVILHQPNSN
Method: (§1) The U937 macrophage-cell line was cultured in RPMI medium (GIBCO) with 10% FBS, and 5×10^4 cells/well were added to 96-well plates. The human neutrophil-like cell line (HL-60) was maintained in RPMI with 10% FBS, and incubated five days in 1.2% DMSO to generate the neutrophil phenotype.
(§2) All cells were incubated with eritoran or placebo, followed by stimulation with LPS or Pam3CysK4 at optimal concentrations for each cells line (noted in results). After 3 h, cell-free supernatants were collected, and CXCL8/IL-8 was measured by ELISA (R&D Systems).
(§3) Cell lines derived from human corneal epithelial cells (HCE-T), macrophages (U937) and neutrophils (HL-60) were stimulated with LPS or Pam3Cys in the presence of eritoran tetrasodium or placebo. After 3 h (U937 and HL-60 cells) or 24 h (HCE-T cell), IL-8 levels in culture supernatants were quantified by ELISA. […] FIGS. 16 and 17 show macrophages stimulated with 10 ng/ml LPS or 500 ng/ml Pam3Cys in the presence of Eritoran or placebo. FIGS. 18 and 19 show neutrophils stimulated with 1 ng/ml LPS or 500 ng/ml Pam3Cys and Eritoran or placebo. LPS concentrations were based on preliminary data showing optimal IL-8 production. […] Graphs are mean+/−SEM of three wells per sample. Experiments were repeated three times with similar results.

TLR4 [2] = target: T2, TLR4 (Mus musculus, UniProt Q9JHF9+Q9QUK6); set-up: species or system C57BL/6 mice; details: in vivo
T2 construct: Corneas of C57BL/6 mice were abraded with three parallel, superficial scratches; from tissue; host or cells: cornea of living C57BL/6 mice
T2 sequence (Q9QUK6 26-835): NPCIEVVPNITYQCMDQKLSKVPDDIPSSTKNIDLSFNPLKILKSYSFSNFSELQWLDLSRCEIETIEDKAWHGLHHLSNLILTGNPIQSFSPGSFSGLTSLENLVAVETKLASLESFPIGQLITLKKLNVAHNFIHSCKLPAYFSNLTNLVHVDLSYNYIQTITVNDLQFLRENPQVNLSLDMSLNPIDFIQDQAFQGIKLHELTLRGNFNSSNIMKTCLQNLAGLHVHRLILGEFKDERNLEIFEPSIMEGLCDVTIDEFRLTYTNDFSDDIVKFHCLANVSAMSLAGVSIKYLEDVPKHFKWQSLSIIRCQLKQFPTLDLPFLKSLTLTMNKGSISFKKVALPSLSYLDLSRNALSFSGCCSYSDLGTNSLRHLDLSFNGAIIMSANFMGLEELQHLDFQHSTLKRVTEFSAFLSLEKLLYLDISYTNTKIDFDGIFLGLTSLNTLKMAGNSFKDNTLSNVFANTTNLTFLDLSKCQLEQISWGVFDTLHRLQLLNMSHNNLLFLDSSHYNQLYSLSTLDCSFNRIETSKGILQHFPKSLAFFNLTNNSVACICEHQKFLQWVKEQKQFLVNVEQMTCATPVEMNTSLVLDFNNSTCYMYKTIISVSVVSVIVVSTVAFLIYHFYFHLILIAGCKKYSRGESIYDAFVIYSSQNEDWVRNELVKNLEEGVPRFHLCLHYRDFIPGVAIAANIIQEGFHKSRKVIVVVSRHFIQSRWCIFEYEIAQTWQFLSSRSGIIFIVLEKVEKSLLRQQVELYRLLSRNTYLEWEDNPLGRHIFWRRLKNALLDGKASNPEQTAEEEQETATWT
T2 sequence (Q9JHF9 19-160): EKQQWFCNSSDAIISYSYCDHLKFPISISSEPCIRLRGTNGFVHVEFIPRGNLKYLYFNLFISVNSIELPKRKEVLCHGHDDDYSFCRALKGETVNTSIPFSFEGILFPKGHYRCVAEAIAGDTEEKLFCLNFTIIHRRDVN

TLR2 [3] = target: T3, TLR2 (Homo sapiens, UniProt O60603); assay: Pam3Cys-induced IL-8 production by human corneal epithelial cells (HCE-T); type: cell-based; details: 500 ng/ml Pam3Cys, 24 h
T3 construct: endogenous in cells; host or cells: HCE-T human corneal epithelial cell line (ATCC)
T3 sequence (O60603 21-784): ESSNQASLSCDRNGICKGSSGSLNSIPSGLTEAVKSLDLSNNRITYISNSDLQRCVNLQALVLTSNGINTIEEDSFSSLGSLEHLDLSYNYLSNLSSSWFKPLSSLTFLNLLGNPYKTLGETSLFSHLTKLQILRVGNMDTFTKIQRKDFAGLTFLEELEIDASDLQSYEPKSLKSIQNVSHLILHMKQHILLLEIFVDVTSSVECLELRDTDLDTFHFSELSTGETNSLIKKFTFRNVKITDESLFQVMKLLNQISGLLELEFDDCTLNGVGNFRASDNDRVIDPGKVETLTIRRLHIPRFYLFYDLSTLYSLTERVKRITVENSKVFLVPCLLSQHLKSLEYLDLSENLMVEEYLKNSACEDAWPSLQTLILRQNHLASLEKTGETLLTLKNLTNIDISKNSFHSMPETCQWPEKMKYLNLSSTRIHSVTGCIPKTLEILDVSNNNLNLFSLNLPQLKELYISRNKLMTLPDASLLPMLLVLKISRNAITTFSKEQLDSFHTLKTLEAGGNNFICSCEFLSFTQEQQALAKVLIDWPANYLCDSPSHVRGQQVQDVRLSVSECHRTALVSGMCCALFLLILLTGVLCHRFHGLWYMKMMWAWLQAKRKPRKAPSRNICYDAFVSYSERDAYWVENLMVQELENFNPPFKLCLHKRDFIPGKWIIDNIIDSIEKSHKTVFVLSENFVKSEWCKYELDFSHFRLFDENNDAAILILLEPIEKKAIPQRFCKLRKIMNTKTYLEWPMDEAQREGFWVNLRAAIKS
Method: (§4) The SV-40 transfected human corneal epithelial cell line (HCE-T) was obtained from ATCC. Before stimulation, HCE cells were plated into 48 well plates and underwent epidermal growth factor starvation overnight. As HCE cells require exogenous MD-2 to respond to LPS, cells were incubated 1 h with 200 ng/ml recombinant human MD-2 (R&D Systems, Minneapolis, Minn.) prior to stimulation with ultrapure LPS (TLR4-specific, Escherichia coli K12, Invivogen; San Diego, Calif.). HCE cells were also incubated with Pam3CysK4 (EMC Microcollections, Germany) in the absence of MD-2.
as §2
Cell lines derived from human corneal epithelial cells (HCE-T), macrophages (U937) and neutrophils (HL-60) were stimulated with LPS or Pam3Cys in the presence of eritoran tetrasodium or placebo. After 3 h (U937 and HL-60 cells) or 24 h (HCE-T cell), IL-8 levels in culture supernatants were quantified by ELISA. […] FIGS. 16 and 17 show macrophages stimulated with 10 ng/ml LPS or 500 ng/ml Pam3Cys in the presence of Eritoran or placebo. FIGS. 18 and 19 show neutrophils stimulated with 1 ng/ml LPS or 500 ng/ml Pam3Cys and Eritoran or placebo. […]

TLR2 [4] = target: T3, TLR2; assay: Pam3Cys-induced IL-8 production by neutrophils (HL-60); type: cell-based; details: HL-60 neutrophils; 500 ng/ml Pam3Cys; 3 h
Method: as §1, §2, §3

TLR2 [5] = target: T4, TLR2 (Mus musculus, UniProt Q9QUN7); assay: Pam3Cys-induced contact lens corneal inflammation (neutrophil infiltrate, reflectivity); type: in vivo, C57BL/6 mice
T4 construct: Corneas of C57BL/6 mice were abraded with three parallel, superficial scratches; from tissue; host or cells: cornea of living C57BL/6 mice
T4 sequence (Q9QUN7 25-784): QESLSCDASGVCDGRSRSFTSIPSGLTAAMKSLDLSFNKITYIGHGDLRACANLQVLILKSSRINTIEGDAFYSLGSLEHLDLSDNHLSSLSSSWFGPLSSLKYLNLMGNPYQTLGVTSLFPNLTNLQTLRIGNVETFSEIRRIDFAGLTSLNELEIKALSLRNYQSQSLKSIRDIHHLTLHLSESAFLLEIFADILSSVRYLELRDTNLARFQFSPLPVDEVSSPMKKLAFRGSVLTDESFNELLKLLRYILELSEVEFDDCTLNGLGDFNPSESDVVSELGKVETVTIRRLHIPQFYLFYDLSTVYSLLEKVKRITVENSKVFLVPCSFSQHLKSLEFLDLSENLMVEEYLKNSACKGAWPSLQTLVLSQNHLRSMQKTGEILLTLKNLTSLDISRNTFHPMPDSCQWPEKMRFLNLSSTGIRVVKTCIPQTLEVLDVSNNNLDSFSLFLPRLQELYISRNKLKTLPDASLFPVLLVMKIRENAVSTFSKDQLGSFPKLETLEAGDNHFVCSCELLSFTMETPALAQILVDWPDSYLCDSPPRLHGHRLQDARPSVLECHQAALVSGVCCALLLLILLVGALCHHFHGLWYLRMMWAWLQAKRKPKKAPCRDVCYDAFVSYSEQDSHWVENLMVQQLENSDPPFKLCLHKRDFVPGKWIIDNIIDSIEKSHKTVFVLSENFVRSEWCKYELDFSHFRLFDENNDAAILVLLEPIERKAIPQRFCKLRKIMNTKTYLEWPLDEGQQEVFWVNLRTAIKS

TLR4 [6] = target: T2, TLR4; set-up: species or system C57BL/6 mice; details: in vivo; remark: listed apart in the source
Method: (§5) C57BL/6 mice (6-8 weeks old) were obtained from The Jackson Laboratory (Bar Harbor, Me.). Mice were anesthetized by intraperitoneal injection of 0.4 ml 2,2,2-tribromoethanol (TBE). A 26 gauge needle was used to make three parallel abrasions in the corneal epithelium as described in our previous studies. Eritoran tetrasodium or placebo at concentrations indicated for each experiment was added topically, and a 2 mm diameter punch from a normal contact lens (LOTRAFILCON A; CIBA VISION) was added to the corneal surface (See FIG. 1). After an additional 1 h, the lens was briefly removed, and 2 μl LPS (20 mg/ml) or Pam3Cys (5 mg/ml) was placed on the corneal surface. The contact lens button was then replaced, and after an additional 1 h, the lens was removed and the mice were allowed to recover from anesthesia. In some experiments, the order of agonist and antagonist was reversed, or both were given simultaneously.
Briefly, Corneas of C57BL/6 mice were abraded with three parallel, superficial scratches. 2 μl of 350 mg/ml Eritoran or placebo was added topically, and a 2 mm diameter punch from a soft contact lens was placed on the corneal surface as shown in FIG. 1. […] After 1 h, the lens was removed, and 3 h later (4 h after stimulation), and corneas were dissected, homogenized, and CXCL1/KC was measured by ELISA.

TLR2 [7] = target: T4, TLR2; assay: Pam3Cys-induced CXCL1/KC production in the cornea, mouse contact lens model; type: in vivo, C57BL/6 mice; details: topical pre-treatment 1 h before Pam3Cys; ELISA 4 h after stimulation; vs placebo
Method: as §5
Briefly, Corneas of C57BL/6 mice were abraded with three parallel, superficial scratches. 2 μl of 350 mg/ml Eritoran or placebo was added topically, and a 2 mm diameter punch from a soft contact lens was placed on the corneal surface as shown in FIG. 1. […] After 1 h, the lens was removed, and 3 h later (4 h after stimulation), and corneas were dissected, homogenized, and CXCL1/KC was measured by ELISA. […]

TLR4 [8] = target: T1, TLR4; assay: LPS-induced IL-8 production by human corneal epithelial cells (HCE-T); type: cell-based; set-up: endogenous in cells; host or cells: HL-60 (five days in 1.2% DMSO); details: for LPS-induced IL-8 production: HCE-T cells, 900 ng/ml LPS with 0.2 μg/ml MD-2, 24 h, ELISA
Method: as §4, §2, §3

TLR4 [9] = target: T1, TLR4; assay: LPS-induced IL-8 production by neutrophils (HL-60); type: cell-based; set-up: endogenous in cells; host or cells: HL-60 (five days in 1.2% DMSO); details: for LPS-induced IL-8 production: HL-60 neutrophils, 1 ng/ml LPS, 3 h
Method: as §1, §2, §3

TLR4/MD-2 = target: T5, TLR4/MD-2 (Mus musculus, UniProt Q9JHF9+Q9QUK6); set-up: species or system C57BL/6 mice; details: in vivo
T5 construct: from tissue; host or cells: cornea of living C57BL/6 mice
T5 sequence (Q9QUK6 26-835): T2 sequence (Q9QUK6 26-835)
T5 sequence (Q9JHF9 19-160): T2 sequence (Q9JHF9 19-160)

corneal epithelium = tested on: corneal epithelium
Method: The cell viability in vitro was measured by trypan blue. The corneal sections were incubated with terminal deoxynucleotidyl transferase-mediated dUTP nick end labeling (TUNEL) reagents according to manufacturer's directions (Roche, Penzberg, Germany), and the number of TUNEL positive cells in the cornea was quantified by fluorescence microscopy.
Mice were pre-treated with 2.2 μg eritoran tetrasodium prior to LPS, as described above, and eyes were snap frozen. We used a TUNEL assay on 5 μm corneal sections to identify apoptotic cells. Total cells were identified using DAPI.

TLR2 [10] = target: T3, TLR2; assay: Pam3Cys-induced IL-8 production by macrophages (U937); type: cell-based; details: 500 ng/ml Pam3Cys, 3 h
Method: as §1, §2, §3

Gram negative Lipid A = details: cited from earlier work
[11] = pretreatment with the highest concentration, Pam3Cys stimulation

LPS-induced IL-8 production (TLR4 [1]): significantly reduced
LPS-induced IL-8 production (TLR4 [1]; listed as Eritoran): dose dependent inhibition
concentration that inhibited LPS-induced IL-8 (TLR4 [1]; macrophage cell line (U937)): 1 ng/mL
LPS-induced corneal haze (TLR4 [2]): significantly reduced
cellular infiltrate in the central corneal stroma (TLR4 [2]): minimal cellular infiltrate
concentration needed to reduce neutrophil numbers by 50% (TLR4 [2]): 0.35 mg/mL
effect on neutrophil numbers at concentrations lower than 1.1 mg/ml (TLR4 [2]): no significant effect
minimum inhibitory concentration (TLR4 [2]): 350 µg/mL
neutrophil numbers per corneal section (TLR4 [2]): dose-dependent reduction
second application after 3 h versus single treatment (TLR4 [2]): no significant difference
Pam3Cys-induced IL-8 production (TLR2 [3]): no effect
Pam3Cys-induced IL-8 production (TLR2 [4]): no effect
neutrophil infiltration (TLR2 [5]; [11]): no effect
total reflectivity (TLR2 [5]; [11]): no effect
Pam3Cys/TLR2-induced corneal inflammation (TLR2 [5]; topical pre-treatment): no effect
CXCL1/KC in LPS-stimulated corneas (TLR4 [6]): significantly inhibited
CXCL1/KC in Pam3Cys-stimulated corneas (TLR2 [7]): no difference
LPS-induced IL-8 production (TLR4 [8]): significantly reduced
LPS-induced IL-8 production (TLR4 [8]; listed as Eritoran): dose dependent inhibition
dose required to inhibit LPS-induced IL-8, relative to macrophage and neutrophil lines (TLR4 [8]; human corneal epithelial cells with exogenous MD-2): required higher doses
LPS-induced IL-8 production (TLR4 [9]): significantly reduced
LPS-induced IL-8 production (TLR4 [9]; listed as Eritoran): dose dependent inhibition
concentration that inhibited LPS-induced IL-8 (TLR4 [9]; neutrophil cell line (HL-60)): 1 ng/mL
corneal haze (TLR4/MD-2): significantly inhibited
corneal thickness (TLR4/MD-2): significantly inhibited
neutrophil infiltration (TLR4/MD-2): significantly inhibited
TUNEL positive cells in the corneal epithelium (corneal epithelium; 2.2 μg prior to LPS, presence or absence of LPS): no TUNEL positive cells
Pam3Cys-induced IL-8 production (TLR2 [10]): no effect
Compound: CCCCCC/C=C\CCCCCCCCCC(=O)N[C@H]1[C@H](OC[C@H]2O[C@H](OP(=O)([O-])[O-])[C@H](NC(=O)CC(=O)CCCCCCCCCCC)[C@@H](OCCCCCCCCCC)[C@@H]2O)O[C@H](COC)[C@@H](OP(=O)([O-])[O-])[C@@H]1OCC[C@@H](CCCCCCC)OC.[Na+].[Na+].[Na+].[Na+] [eritoran tetrasodium]
LPS-induced neutrophil infiltration (TLR4 [2]): significantly inhibited; also recorded: significantly reduced
pro-apoptotic effect (corneal epithelium; 2.2 μg, corneal epithelium): no pro-apoptotic effect

Compound: Rhodobacter sphaeroides lipid A [RSLA]
antagonistic activity for other Gram negative Lipid A (Gram negative Lipid A): pronounced antagonistic activity
agonist activity (Gram negative Lipid A; on some cell types): only minor agonist activity
